The source made the active and inactive calls. The calls are words filed in the database; no cut-off is given here.
Key:
[1] = molecular target: T1, Metabotropic glutamate receptor 4 (Homo sapiens, UniProt Q14833); experiment: Positive allosteric modulator activity at human mGlu4 receptor expressed in CHO cells expressing Gqi5 by calcium mobilization assay; assay type: functional, cell-based
[2] = molecular target: T1, Metabotropic glutamate receptor 4; experiment: Positive allosteric modulation of human mGlu4 receptor expressed in CHO cells coexpressing Gqi5 assessed as potentiation of glutamate-induced calcium mobilization at 30 uM relative to (-)-PHCCC; assay type: functional, cell-based
Cytochrome P450 3A4 = Cytochrome P450 3A4 (Homo sapiens, UniProt P08684); experiment: Inhibition of CYP3A4 in human liver microsomes using 1-hydroxymidazolam as substrate; assay type: ADME
Cytochrome P450 2D6 = Cytochrome P450 2D6 (Homo sapiens, UniProt P10635); experiment: Inhibition of CYP2D6 in human liver microsomes using dextrophan tartarate as substrate; assay type: ADME
Cytochrome P450 1A2 = molecular target: T2, Cytochrome P450 1A2 (Homo sapiens, UniProt P05177); experiment: Inhibition of CYP1A2 in human liver microsomes using acetaminophen as substrate; assay type: ADME
T2 sequence (P05177 whole entry): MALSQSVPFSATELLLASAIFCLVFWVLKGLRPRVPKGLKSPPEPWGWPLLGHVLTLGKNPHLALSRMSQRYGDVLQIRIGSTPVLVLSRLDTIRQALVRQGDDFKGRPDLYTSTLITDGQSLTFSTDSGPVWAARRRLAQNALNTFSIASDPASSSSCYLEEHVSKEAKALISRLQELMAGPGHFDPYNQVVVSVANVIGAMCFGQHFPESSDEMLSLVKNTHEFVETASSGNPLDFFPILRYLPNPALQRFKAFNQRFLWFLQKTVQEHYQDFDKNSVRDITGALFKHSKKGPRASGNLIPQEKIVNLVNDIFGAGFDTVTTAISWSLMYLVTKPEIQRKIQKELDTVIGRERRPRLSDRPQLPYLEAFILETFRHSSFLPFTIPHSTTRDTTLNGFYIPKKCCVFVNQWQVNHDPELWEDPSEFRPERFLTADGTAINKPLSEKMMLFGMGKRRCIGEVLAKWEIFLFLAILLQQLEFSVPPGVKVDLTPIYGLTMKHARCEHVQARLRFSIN

Cytochrome P450 2C9 = Cytochrome P450 2C9 (Homo sapiens, UniProt P11712); experiment: Inhibition of CYP2C9 in human liver microsomes using 4-hydroxydiclofenac as substrate; assay type: ADME
[3] = Clearance in Sprague-Dawley rat by LC/MS analysis; assay type: ADME, organism-based; conditions: in vivo
[4] = Volume of distribution at steady state in Sprague-Dawley rat by LC/MS analysis; assay type: ADME, organism-based; conditions: in vivo, read-out: Vdss
[5] = Half life in Sprague-Dawley rat by LC/MS analysis; assay type: ADME, organism-based; conditions: in vivo
[6] = Ratio of drug level in brain to plasma in rat at 0.25 mg/kg, iv infused at 0.25 hr rate through cassette dosing schedule; assay type: ADME, organism-based
[7] = Binding affinity to human P-gp assessed as efflux ratio by cell based assay; assay type: ADME
Rattus norvegicus [8] = experiment: Reversal of haloperidol-induced catalepsy in Sprague-Dawley rat at 1 mg/kg, po administered 60 mins after haloperidol-challenge measured after 30 mins; assay type: functional, organism-based
[9] = Drug level in brain of Sprague-Dawley rat model of haloperidol-induced catalepsy at 1 mg/kg, po administered 60 mins after haloperidol-challenge measured after 30 mins; assay type: ADME, organism-based; conditions: read-out: Drug uptake
Brain [10] = experiment: Partition coefficient in brain of Sprague-Dawley rat model of haloperidol-induced catalepsy at 1 mg/kg, po administered 60 mins after haloperidol-challenge measured after 30 mins; assay type: ADME, organism-based; conditions: 0.5 h
[11] = Ratio of drug level in brain of Sprague-Dawley rat model of haloperidol-induced catalepsy at 1 mg/kg, po to EC50 for positive allosteric modulator activity at rat mGlu4 receptor
[12] = molecular target: Metabotropic glutamate receptor 4 (Rattus norvegicus, UniProt P31423); experiment: Positive allosteric modulator activity at rat mGlu4 receptor
[13] = Intrinsic clearance in rat hepatic microsomes; assay type: ADME, Liver; conditions: read-out: CLH
[14] = Intrinsic clearance in human hepatic microsomes; assay type: ADME, Liver; conditions: read-out: CLH
[15] = Fraction unbound in human plasma; assay type: ADME, cell-free
Plasma = experiment: Fraction unbound in rat plasma; assay type: ADME, cell-free
Rattus norvegicus [16] = experiment: Reversal of haloperidol-induced catalepsy in orally dosed Sprague-Dawley rat administered 60 mins after haloperidol-challenge measured after 30 mins; assay type: functional; conditions: po, read-out: MED
Rattus norvegicus [17] = experiment: Reversal of haloperidol-induced catalepsy in Sprague-Dawley rat at 3 mg/kg, po administered 60 mins after haloperidol-challenge measured after 30 mins; assay type: functional, organism-based
[18] = Drug level in brain of Sprague-Dawley rat model of haloperidol-induced catalepsy at 1 to 10 mg/kg, po administered 60 mins after haloperidol-challenge measured after 30 mins; assay type: ADME, organism-based; conditions: read-out: Drug uptake
Brain [19] = experiment: Partition coefficient in brain of Sprague-Dawley rat model of haloperidol-induced catalepsy at 1 to 10 mg/kg, po administered 60 mins after haloperidol-challenge measured after 30 mins; assay type: ADME, organism-based; conditions: 0.5 h
[20] = Ratio of drug level in brain of Sprague-Dawley rat model of haloperidol-induced catalepsy at 1 to 10 mg/kg, po to EC50 for positive allosteric modulator activity at rat mGlu4 receptor
Rattus norvegicus [21] = experiment: Reversal of haloperidol-induced catalepsy in Sprague-Dawley rat at 10 mg/kg, po administered 60 mins after haloperidol-challenge measured after 30 mins; assay type: functional, organism-based

T1 sequence (Q14833 whole entry): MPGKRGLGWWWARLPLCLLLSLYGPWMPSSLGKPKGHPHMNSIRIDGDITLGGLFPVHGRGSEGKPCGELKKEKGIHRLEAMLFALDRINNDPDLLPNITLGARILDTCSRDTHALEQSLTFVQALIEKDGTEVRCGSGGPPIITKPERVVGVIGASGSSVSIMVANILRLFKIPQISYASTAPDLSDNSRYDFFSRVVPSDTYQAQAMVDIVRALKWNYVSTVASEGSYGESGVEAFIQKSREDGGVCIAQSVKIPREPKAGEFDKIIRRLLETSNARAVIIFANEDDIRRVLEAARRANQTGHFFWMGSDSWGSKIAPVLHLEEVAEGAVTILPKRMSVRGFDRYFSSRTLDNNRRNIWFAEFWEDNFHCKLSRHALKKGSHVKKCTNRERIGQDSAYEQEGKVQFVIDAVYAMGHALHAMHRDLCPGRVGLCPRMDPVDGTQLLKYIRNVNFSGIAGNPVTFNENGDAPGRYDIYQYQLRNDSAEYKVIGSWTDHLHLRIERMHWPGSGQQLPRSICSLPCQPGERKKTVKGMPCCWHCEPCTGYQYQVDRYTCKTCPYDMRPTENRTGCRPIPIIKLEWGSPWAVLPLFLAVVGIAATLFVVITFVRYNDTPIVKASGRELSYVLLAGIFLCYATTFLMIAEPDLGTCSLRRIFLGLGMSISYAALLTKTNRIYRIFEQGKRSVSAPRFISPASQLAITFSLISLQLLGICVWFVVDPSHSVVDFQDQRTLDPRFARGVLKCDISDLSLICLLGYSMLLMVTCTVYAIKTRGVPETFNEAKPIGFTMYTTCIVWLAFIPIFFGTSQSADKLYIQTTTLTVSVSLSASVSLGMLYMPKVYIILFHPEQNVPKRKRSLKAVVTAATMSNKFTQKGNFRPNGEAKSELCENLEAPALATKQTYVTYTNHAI
Sequence of Cytochrome P450 2C9 (P11712 whole entry): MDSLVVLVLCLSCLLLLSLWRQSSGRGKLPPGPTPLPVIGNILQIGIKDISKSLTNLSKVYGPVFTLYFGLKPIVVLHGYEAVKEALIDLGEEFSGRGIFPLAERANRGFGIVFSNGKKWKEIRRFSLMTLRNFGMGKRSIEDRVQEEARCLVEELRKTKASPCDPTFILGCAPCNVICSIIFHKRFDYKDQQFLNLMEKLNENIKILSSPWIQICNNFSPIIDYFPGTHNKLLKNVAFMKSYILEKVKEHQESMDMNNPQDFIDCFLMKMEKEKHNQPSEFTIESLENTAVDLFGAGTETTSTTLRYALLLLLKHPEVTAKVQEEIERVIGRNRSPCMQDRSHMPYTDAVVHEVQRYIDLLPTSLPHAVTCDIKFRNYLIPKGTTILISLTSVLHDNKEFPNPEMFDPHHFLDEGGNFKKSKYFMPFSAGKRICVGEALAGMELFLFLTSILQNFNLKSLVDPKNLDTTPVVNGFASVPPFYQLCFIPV
Sequence of Cytochrome P450 3A4 (P08684 whole entry): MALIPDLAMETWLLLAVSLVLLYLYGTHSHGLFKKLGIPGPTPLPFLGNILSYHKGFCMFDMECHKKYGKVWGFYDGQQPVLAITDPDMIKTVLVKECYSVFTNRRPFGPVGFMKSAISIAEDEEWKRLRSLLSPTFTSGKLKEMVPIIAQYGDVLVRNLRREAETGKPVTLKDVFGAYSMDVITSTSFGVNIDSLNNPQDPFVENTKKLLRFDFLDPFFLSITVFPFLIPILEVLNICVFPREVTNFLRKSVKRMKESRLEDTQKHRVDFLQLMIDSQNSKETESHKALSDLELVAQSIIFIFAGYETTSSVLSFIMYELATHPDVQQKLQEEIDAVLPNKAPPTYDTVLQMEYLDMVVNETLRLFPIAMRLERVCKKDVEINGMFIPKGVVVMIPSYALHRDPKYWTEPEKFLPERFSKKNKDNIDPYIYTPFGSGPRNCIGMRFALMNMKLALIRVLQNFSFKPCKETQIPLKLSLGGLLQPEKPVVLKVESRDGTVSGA
Sequence of Metabotropic glutamate receptor 4 (Rattus norvegicus, UniProt P31423) (P31423 whole entry): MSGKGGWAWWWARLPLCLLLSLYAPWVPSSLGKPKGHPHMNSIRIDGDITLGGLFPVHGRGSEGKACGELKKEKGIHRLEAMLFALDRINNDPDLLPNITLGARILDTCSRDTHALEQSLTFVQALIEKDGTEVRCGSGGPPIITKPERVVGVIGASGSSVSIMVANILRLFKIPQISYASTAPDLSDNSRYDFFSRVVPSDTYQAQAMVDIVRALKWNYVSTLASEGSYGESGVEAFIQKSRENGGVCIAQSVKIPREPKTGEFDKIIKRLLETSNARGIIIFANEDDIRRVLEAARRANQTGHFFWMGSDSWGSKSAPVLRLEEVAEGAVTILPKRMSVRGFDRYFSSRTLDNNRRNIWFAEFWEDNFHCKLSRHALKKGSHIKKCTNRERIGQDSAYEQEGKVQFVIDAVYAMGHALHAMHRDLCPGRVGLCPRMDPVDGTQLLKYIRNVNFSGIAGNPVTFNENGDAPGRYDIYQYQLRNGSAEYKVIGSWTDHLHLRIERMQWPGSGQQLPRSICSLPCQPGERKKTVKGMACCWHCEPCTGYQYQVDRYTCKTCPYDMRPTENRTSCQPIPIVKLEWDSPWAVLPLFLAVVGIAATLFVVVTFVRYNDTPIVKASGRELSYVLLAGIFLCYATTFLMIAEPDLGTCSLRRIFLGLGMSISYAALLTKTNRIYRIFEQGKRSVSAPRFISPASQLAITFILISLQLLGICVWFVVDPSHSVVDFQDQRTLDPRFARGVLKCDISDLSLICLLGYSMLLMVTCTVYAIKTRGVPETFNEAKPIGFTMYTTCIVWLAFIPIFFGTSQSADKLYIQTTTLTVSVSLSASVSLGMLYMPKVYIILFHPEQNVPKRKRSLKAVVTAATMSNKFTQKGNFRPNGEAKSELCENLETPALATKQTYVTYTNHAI
Sequence of Cytochrome P450 2D6 (P10635 whole entry): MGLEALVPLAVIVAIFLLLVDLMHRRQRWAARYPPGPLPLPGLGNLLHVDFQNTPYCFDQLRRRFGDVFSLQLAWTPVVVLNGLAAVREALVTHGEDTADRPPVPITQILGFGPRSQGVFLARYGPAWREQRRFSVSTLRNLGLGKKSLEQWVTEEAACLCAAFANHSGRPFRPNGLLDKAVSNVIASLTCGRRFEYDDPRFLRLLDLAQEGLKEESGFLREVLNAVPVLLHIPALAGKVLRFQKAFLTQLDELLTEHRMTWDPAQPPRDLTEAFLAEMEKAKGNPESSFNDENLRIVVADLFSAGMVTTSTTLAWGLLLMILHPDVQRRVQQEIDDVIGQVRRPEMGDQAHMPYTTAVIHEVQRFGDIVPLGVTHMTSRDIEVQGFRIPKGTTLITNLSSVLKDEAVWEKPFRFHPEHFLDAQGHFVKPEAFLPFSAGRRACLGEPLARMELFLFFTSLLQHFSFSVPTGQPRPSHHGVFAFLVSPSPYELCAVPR

Structure (SMILES)	EC50 ([1]; read-out: EC50) [nM]	%max [2] [%]	EC50 ([1]; read-out: pEC50 (converted)) [nM]	further results
CCc1cnc(Oc2ccc(NC(=O)c3nccnc3N)cc2Cl)nc1	296	104		
Nc1cccnc1C(=O)Nc1ccc(N2CC3(CCCCC3)CC2=O)c(Cl)c1		52	1290	
CC1(C2CC2)CC(=O)N(c2ccc(NC(=O)c3ncccc3N)cc2Cl)C1 (stereo not given)		66.2	2820	
O=C(Nc1ccc(N2C(=O)c3ccccc3C2=O)c(Cl)c1)c1ncccc1O	125	115		
CC1(C)CC(=O)N(c2ccc(NC(=O)c3ncccc3N)cc2Cl)C1	> 10000	12.7		
Nc1cccnc1C(=O)Nc1ccc(N2Cc3ncccc3C2=O)c(Cl)c1		68.9	1260	
Nc1cccnc1C(=O)Nc1ccc(N2CC(c3c(F)cccc3Cl)CC2=O)c(Cl)c1 (stereo not given)		75.9	1860	
Nc1cccnc1C(=O)Nc1ccc(N2CC(c3cccnc3)CC2=O)c(Cl)c1 (stereo not given)		92.8	2510	
Cc1ncc(Oc2ccc(NC(=O)c3ncccc3N)cc2Cl)cn1		89.8	1350	
Nc1cccnc1C(=O)Nc1ccc(N2C(=O)c3ccccc3C2=O)c(Cl)c1		89.1	95.5	IC50 (Cytochrome P450 3A4): > 30000 nM; IC50 (Cytochrome P450 2D6): > 30000 nM; IC50 (Cytochrome P450 1A2): > 30000 nM; IC50 (Cytochrome P450 2C9): 7200 nM; clearance [3]: 3.98 mL/min/kg; Vd [4]: 0.85 L/kg; half-life [5]: 3.7 h; Kp [6]: 1.31; Ratio [7]: 1.2; Activity (Rattus norvegicus [8]): Active; concentration at 0.5 h [9]: 334 nM; Kp (Brain [10]): 0.3; Ratio [11]: 2; EC50 [12]: 128 nM; CLint scaled [13]: 51 mL/min/kg; CLint scaled [14]: 5.8 mL/min/kg; Fu [15]: 0.007; Fu (Plasma): 0.003
CCc1cnc(Oc2ccc(NC(=O)c3ccncc3N)cc2Cl)nc1	> 10000	44.2		
CC(C)CC1CC(=O)N(c2ccc(NC(=O)c3ncccc3N)cc2Cl)C1 (stereo not given)		74.5	1620	
CC1c2ccccc2C(=O)N1c1ccc(NC(=O)c2ncccc2N)cc1Cl (stereo not given)		76.8	3980	
CCc1cnc(Oc2ccc(NC(=O)c3ncccc3N)cc2Cl)nc1		97.9	64.6	IC50 (Cytochrome P450 3A4): 21100 nM; IC50 (Cytochrome P450 2D6): > 30000 nM; IC50 (Cytochrome P450 1A2): 2600 nM; IC50 (Cytochrome P450 2C9): > 30000 nM; clearance [3]: 13.7 mL/min/kg; Vd [4]: 0.86 L/kg; half-life [5]: 1.5 h; Kp [6]: 0.36; Ratio [7]: 1.9; minimal effective dose (Rattus norvegicus [16]): 1 mg/kg; Activity (Rattus norvegicus [17]): Active; concentration at 0.5 h [18]: 172 nM; Kp (Brain [19]): 0.2; Ratio [20]: 3.5; EC50 [12]: 46.6 nM; CLint scaled [13]: 46.1 mL/min/kg; CLint scaled [14]: 17.7 mL/min/kg; Fu [15]: 0.004; Fu (Plasma): 0.004
Nc1cccnc1C(=O)Nc1ccc(N2Cc3ccc(Cl)cc3C2=O)c(Cl)c1	> 10000	42.3		
Nc1cccnc1C(=O)Nc1ccc(N2CCc3ccccc3C2=O)c(Cl)c1		60.7	912	
Nc1cccnc1C(=O)Nc1ccc(N2Cc3ccccc3CC2=O)c(Cl)c1		63.2	2190	
Nc1cccnc1C(=O)Nc1ccc(N2CC3(CCCC3)CC2=O)c(Cl)c1	> 10000	13.8		
Cc1cccc2c1C(=O)N(c1ccc(NC(=O)c3ncccc3N)cc1Cl)C2=O		122	692	
Fc1ccc(Nc2n[nH]c3cccnc23)cc1Cl				Activity (Rattus norvegicus [8]): Active; Activity (Rattus norvegicus [21]): Active
Nc1cccnc1C(=O)Nc1ccc(N2CCCC2=O)c(Cl)c1	> 10000	39.6		
Nc1cccnc1C(=O)Nc1ccc(N2CC(Cc3ccccc3)CC2=O)c(Cl)c1 (stereo not given)		45.3	759	
COc1ccc2c(c1)C(=O)N(c1ccc(NC(=O)c3ncccc3N)cc1Cl)C2		71.7	316	
Nc1cccnc1C(=O)Nc1ccc(N2C(=O)C3CCC2C3)c(Cl)c1 (stereo not given)	> 10000	47.7		
Nc1cccnc1C(=O)Nc1cccc(Cl)c1	587	88.1	575	
Nc1cccnc1C(=O)Nc1ccc(N2Cc3ccccc3C2=O)c(Cl)c1		43.9	234	

— ChEMBL document CHEMBL3797196, “Discovery of 3-aminopicolinamides as metabotropic glutamate receptor subtype 4 (mGlu4) positive allosteric modulator warheads engendering CNS exposure and in vivo efficacy” (Bioorg Med Chem Lett, 2016)
